{"source": "paper PMC8282704", "about": "(Clinical cancer research : an official journal of the …, 2021)", "key": {"[1]": {"test_system": "patients with HER2-negative metastatic breast cancer", "test": "Treatment-related adverse events", "format": "in vivo, human", "conditions": "11/43; N=1 at 250mg, N=10 at 350mg"}, "[2]": {"test_system": "patients with HER2-negative metastatic breast cancer", "format": "in vivo"}, "[3]": {"test": "Plasma pharmacokinetics, phase I, cycle 1", "format": "in vivo, human", "conditions": "13 patients, with nab-paclitaxel"}, "[4]": {"test_system": "PI3Kα isoform (both wild-type and mutated p110α)", "conditions": "cited from earlier work"}, "[5]": {"test_system": "other class I isoforms β, δ, and γ", "conditions": "cited from earlier work"}, "[6]": {"test_system": "PIK3CA/AKT1/PTEN-altered metastatic TNBC", "conditions": "cited from earlier work"}, "[7]": {"test_system": "hormone receptor-positive metastatic breast cancer", "conditions": "cited from earlier work"}}, "data": [{"smiles": "Cc1nc(NC(=O)N2CCC[C@H]2C(N)=O)sc1-c1ccnc(C(C)(C)C(F)(F)F)c1", "note": "[alpelisib]", "values": [{"measurement": "Alpelisib dose reduction required, patients", "setting": "[1]", "value": 26, "unit": "%"}, {"measurement": "MTD of alpelisib", "setting": "[2]; in combination with nab-paclitaxel 100mg/m^2 D1,8,15", "value": "not reached"}, {"measurement": "RP2D of alpelisib", "setting": "[2]; orally daily, in combination with nab-paclitaxel 100mg/m^2 D1,8,15 every 28 days", "value": 350, "unit": "mg"}, {"measurement": "Tmax, Cmax, and AUC (0–8 hrs) of alpelisib", "setting": "[3]", "value": "consistent with previous published reports"}, {"measurement": "inhibition of PI3Kα isoform", "setting": "[4]", "value": "selectively inhibits PI3Kα isoform"}, {"measurement": "activity against the other class I isoforms β, δ, and γ", "setting": "[5]", "value": "significantly less active"}]}, {"smiles": "CC(C)NC[C@@H](C(=O)N1CCN(c2ncnc3c2[C@H](C)C[C@H]3O)CC1)c1ccc(Cl)cc1", "note": "[ipatasertib]", "values": [{"measurement": "PFS with addition to first-line paclitaxel", "setting": "[6]", "value": "failed to show improvement in PFS"}]}, {"smiles": "NC1(C(=O)N[C@@H](CCO)c2ccc(Cl)cc2)CCN(c2ncnc3[nH]ccc23)CC1", "note": "[capivasertib]", "values": [{"measurement": "PFS with addition to fulvestrant", "setting": "[7]", "value": "improvement in PFS"}]}]}
